Measured values from patent publication US20010033864A1, “Low dose entecavir formulation and use” (priority 2000, published 2001).

Legend:
hepatitis B virus [1] = assay: 24-week randomized, double-blind, lamivudine-controlled trial of safety and antiviral activity in chronic hepatitis B; assay type: in vivo, human; details: 24 weeks
Experimental: The safety and antiviral activity of three doses of entecavir (0.01 mg, 0.1 mg and 0.5 mg) given once daily for 24 weeks were studies in adults with chronic hepatitis B in a randomized, double-blind, lamivudine (100 mg QD) controlled trial.

hepatitis B virus [2] = assay: 28-day randomized, double-blind, placebo-controlled, dose-escalating trial of safety and antiviral activity in chronic hepatitis B; assay type: in vivo, human; details: for mean log reduction in hepatitis B virus DNA viral levels in the blood: human subjects with chronic HBV infection, day 28
Experimental: The safety and antiviral activity of entecavir given for 28 days to human subjects with chronic hepatitis B virus infection was studied in a randomized, double-blind, placebo-controlled, dose-escalating trial. […] The mean log reduction in hepatitis B virus DNA viral levels in the blood at day 28 were 2.21, 2.25, 2.81, and 2.42 for the 0.05, 0.1, 0.5 and 1.0 mg once daily doses of entecavir, respectively.

C=C1C(CO)C(O)C[C@@H]1n1cnc2c(=O)[nH]c(N)nc21 (stereo partly drawn) [Entecavir, [1S-(1α,3α, 4β)]-2-amino-1,9-dihydro-9-[4-hydroxy-3-(hydroxymethyl)-2-methylenecyclopentyl]-6H-purin-6-one]
safety / tolerability (hepatitis B virus [1]; all doses (0.01, 0.1, 0.5 mg once daily)): well tolerated | antiviral activity (hepatitis B virus [1]; all three doses (0.01, 0.1, 0.5 mg once daily), adults with chronic hepatitis B): potent antiviral activity | reductions in hepatitis B virus DNA viral levels in blood compared to lamivudine (hepatitis B virus [1]; two higher doses (0.1 mg and 0.5 mg once daily), vs lamivudine 100 mg QD): significantly greater reductions | safety / tolerability (hepatitis B virus [2]; 0.05-1.0 mg once daily for 28 days, human subjects): well tolerated | antiviral activity (hepatitis B virus [2]; all doses tested (0.05, 0.1, 0.5, 1.0 mg once daily), 28 days): potent antiviral activity | mean log reduction in hepatitis B virus DNA viral levels in the blood (hepatitis B virus [2]; 0.05 mg once daily): 2.21 log | mean log reduction in hepatitis B virus DNA viral levels in the blood (hepatitis B virus [2]; 0.1 mg once daily): 2.25 log | mean log reduction in hepatitis B virus DNA viral levels in the blood (hepatitis B virus [2]; 0.5 mg once daily): 2.81 log | mean log reduction in hepatitis B virus DNA viral levels in the blood (hepatitis B virus [2]; 1.0 mg once daily): 2.42 log
